20 compounds from PubChem BioAssay (NCI) can be followed below.

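Grown in 96-well plates, cells were treated for 48 hours with each compound at five concentrations. Insufficient inhibition: endpoint recorded as highest concentration tested. Definition used: TGI = concentration required for complete inhibition of growth.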

Some test systems named below: NCI-H226 lung; A549 NSCLC; HCC-2998 colon; SNB-75 CNS; MCF7 breast; SK-MEL-2 melanoma; IGROV1 ovarian; MDA-N; NCI-H460 lung; KM12 colon.
Holding throughout (assay): growth of human tumour cells (NCI), 48 h

As for `O=C(Nc1sccc1S(=O)(=O)c1ccccc1)c1cccnc1`, the TGI with NCI-H226 lung is greater than 59.3 µM; in the assay on A549 NSCLC, greater than 100 µM; in the assay on HCC-2998 colon, greater than 100 µM; with SNB-75 CNS, greater than 91 µM; in the assay on MCF7 breast, greater than 100 µM; with SK-MEL-2 melanoma, greater than 100 µM. Moreover, the TGI is greater than 94.2 µM in the assay with IGROV1 ovarian, 3.63 µM in the assay on MDA-N, greater than 100 µM in the assay with NCI-H460 lung and greater than 100 µM with KM12 colon.

With `O=C(Nc1ccccc1)O/N=C(/CBr)c1ccccc1`, the TGI in the assay on NCI-H226 lung was 60.8 µM; in the assay on A549 NSCLC, greater than 100 µM; in the assay on HCC-2998 colon it was 36.6 µM; with SNB-75 CNS, 30.5 µM; with MCF7 breast it was 40 µM; in the assay with SK-MEL-2 melanoma, 30.9 µM. The TGI in the assay on IGROV1 ovarian was determined as 36.9 µM; in the assay with MDA-N, 24.2 µM; with NCI-H460 lung, 43.1 µM; with KM12 colon it was 44.2 µM.

Turning to `CCOC(C[Se]CC(OCC)OCC)OCC`, the TGI was 46.4 µM with NCI-H226 lung; greater than 100 µM in the assay on A549 NSCLC; greater than 100 µM with HCC-2998 colon; 38.8 µM in the assay with SNB-75 CNS; greater than 100 µM with MCF7 breast; greater than 100 µM in the assay on SK-MEL-2 melanoma. The TGI in the assay on IGROV1 ovarian is 93.2 µM; in the assay with MDA-N, greater than 100 µM; in the assay with NCI-H460 lung, greater than 100 µM; in the assay on KM12 colon it was greater than 100 µM.

As for `CC(C)(CO)CNc1cc(=O)[nH]c(N)n1`, the TGI in the assay with NCI-H226 lung, in the assay on A549 NSCLC, in the assay on HCC-2998 colon, with SNB-75 CNS, in the assay on MCF7 breast and in the assay with SK-MEL-2 melanoma was greater than 100 µM throughout. Besides, the TGI in the assay on IGROV1 ovarian, with MDA-N, with NCI-H460 lung and in the assay on KM12 colon was greater than 100 µM each time.

In the case of `COC(=O)c1cc(C)ccc1CC(Cc1cccc(C)c1)C(=O)OC` (stereo not given), the TGI in the assay on NCI-H226 lung, in the assay with A549 NSCLC, in the assay with HCC-2998 colon, in the assay with SNB-75 CNS, in the assay with MCF7 breast and in the assay on SK-MEL-2 melanoma was greater than 100 µM in each case. Further, the TGI in the assay on IGROV1 ovarian, in the assay with MDA-N, in the assay with NCI-H460 lung and with KM12 colon was greater than 100 µM in each case.

For the compound `Cc1ccc(S(=O)(=O)N/C(=C\C=C\c2ccccc2)C(=O)C(C)(C)C)cc1`, the TGI in the assay with NCI-H226 lung, in the assay on A549 NSCLC, with HCC-2998 colon, with SNB-75 CNS, in the assay with MCF7 breast and with SK-MEL-2 melanoma was greater than 100 µM in each case. Moreover, the TGI in the assay with IGROV1 ovarian, with MDA-N, in the assay on NCI-H460 lung and with KM12 colon was greater than 100 µM each time.

Regarding `O=[N+]([O-])c1cccc(-c2csc(N=Nc3c(O)[nH]c4ccccc34)n2)c1`, the TGI in the assay on NCI-H226 lung was 47.6 µM; with A549 NSCLC, 44 µM; with HCC-2998 colon it was 32 µM; in the assay on SNB-75 CNS, 56.1 µM; in the assay with MCF7 breast it was greater than 100 µM; in the assay on SK-MEL-2 melanoma it was greater than 100 µM. Moreover, the TGI in the assay with IGROV1 ovarian is 54.6 µM; in the assay on MDA-N, greater than 100 µM; in the assay on NCI-H460 lung it was 31.8 µM; in the assay on KM12 colon, greater than 100 µM.

Regarding `CCN1CC(C)Cn2c(=O)[nH]c3cc(Br)cc1c32` (stereo not given), the TGI was greater than 100 µM in the assay with NCI-H226 lung; greater than 100 µM with A549 NSCLC; greater than 100 µM in the assay on HCC-2998 colon; 48.3 µM in the assay on SNB-75 CNS; 87.4 µM with MCF7 breast; greater than 100 µM with SK-MEL-2 melanoma. The TGI in the assay on IGROV1 ovarian is greater than 100 µM; in the assay with MDA-N it was 51.8 µM; in the assay with NCI-H460 lung it was greater than 100 µM; in the assay with KM12 colon it was greater than 100 µM.

For `Cc1cc2c(cc1Cl)Sc1nnc(Nc3ccccc3)n1S2(=O)=O`, the TGI was 10.7 µM in the assay on NCI-H226 lung; 32.7 µM in the assay on A549 NSCLC; 14.2 µM in the assay with HCC-2998 colon; 23.7 µM with SNB-75 CNS; 32.4 µM with MCF7 breast; 21.2 µM with SK-MEL-2 melanoma. Further, the TGI in the assay on IGROV1 ovarian was found to be 54.6 µM; with MDA-N, 31.2 µM; with NCI-H460 lung, 33.2 µM; with KM12 colon, 57.5 µM.

Turning to `Cc1c(-c2c(C)c3ccccc3n2S(=O)(=O)c2ccccc2)n(S(=O)(=O)c2ccccc2)c2ccccc12`, the TGI with NCI-H226 lung was greater than 100 µM; in the assay on A549 NSCLC, greater than 100 µM; with HCC-2998 colon it was greater than 69 µM; with SNB-75 CNS, greater than 31.6 µM; with MCF7 breast it was greater than 100 µM; in the assay with SK-MEL-2 melanoma, greater than 100 µM. For the same compound, the TGI in the assay on IGROV1 ovarian was greater than 100 µM; in the assay with MDA-N, greater than 100 µM; with NCI-H460 lung, 16.3 µM; with KM12 colon, greater than 100 µM.

Take `CC(=O)O/C=C\OC1CCCC1(c1ccccc1)c1ccccc1` (stereo not given): the TGI in the assay on NCI-H226 lung is 24.8 µM; in the assay on A549 NSCLC it was 43.8 µM; in the assay on HCC-2998 colon, 24.3 µM; in the assay on SNB-75 CNS, 11.5 µM; in the assay with MCF7 breast it was 5.42 µM; in the assay on SK-MEL-2 melanoma it was 12.5 µM. Besides, the TGI was found to be 6.08 µM with IGROV1 ovarian, 5 µM in the assay on MDA-N, 26.6 µM in the assay with NCI-H460 lung and 12.9 µM in the assay on KM12 colon.

In the case of `COc1cc2c(cc1C[N+](C)(C)CSc1ccccc1)-c1ccccc1CC2`, the TGI with NCI-H226 lung worked out at 23.6 µM; with A549 NSCLC, 45.8 µM; with HCC-2998 colon it was 13.6 µM; in the assay with SNB-75 CNS it was 6.17 µM; with MCF7 breast, 16.4 µM; with SK-MEL-2 melanoma, 5.21 µM. The TGI came to 12.5 µM with IGROV1 ovarian, 5.48 µM with MDA-N, 9.43 µM in the assay with NCI-H460 lung and 6.92 µM in the assay on KM12 colon.

Turning to `c1ccc(CNc2c3c(nc4ccccc24)CCC3)cc1`, the TGI came to 35.9 µM with NCI-H226 lung; 38.9 µM in the assay on A549 NSCLC; 26.5 µM in the assay with HCC-2998 colon; 43.5 µM with SNB-75 CNS; 30.9 µM in the assay with MCF7 breast; 27.2 µM with SK-MEL-2 melanoma. The TGI in the assay with IGROV1 ovarian amounted to 42.4 µM; in the assay on MDA-N, 30.4 µM; in the assay on NCI-H460 lung, 25 µM; with KM12 colon it was 40.3 µM.

On to `CCC(CCCN)Nc1cc(OC)cc2cccnc12` (stereo not given), for which the TGI in the assay on NCI-H226 lung is greater than 100 µM; with A549 NSCLC, greater than 100 µM; in the assay with HCC-2998 colon it was 52.7 µM; with SNB-75 CNS it was greater than 100 µM; with MCF7 breast, greater than 100 µM; in the assay on SK-MEL-2 melanoma, greater than 100 µM. Further, the TGI in the assay with IGROV1 ovarian, in the assay with MDA-N, with NCI-H460 lung and in the assay with KM12 colon was greater than 100 µM in each case.

On to `C=CC(=O)N1C/C(=C\c2ccc(N(C)C)cc2)C(=O)/C(=C/c2ccc(N(C)C)cc2)C1`, for which the TGI in the assay with NCI-H226 lung, in the assay on A549 NSCLC, in the assay with HCC-2998 colon, with SNB-75 CNS, in the assay with MCF7 breast and in the assay with SK-MEL-2 melanoma was greater than 100 µM each time. Further, the TGI in the assay on IGROV1 ovarian is greater than 100 µM; in the assay on MDA-N, 78.7 µM; in the assay with NCI-H460 lung, greater than 100 µM; in the assay on KM12 colon it was greater than 100 µM.

`CCCC/C=C1\CCC(CN2CCCCC2)C1=O` (stereo not given): the TGI is 63.1 µM with NCI-H226 lung; 52.9 µM in the assay with A549 NSCLC; 22.6 µM in the assay on HCC-2998 colon; greater than 100 µM in the assay on SNB-75 CNS; greater than 100 µM with MCF7 breast; greater than 54.4 µM with SK-MEL-2 melanoma. The TGI in the assay on IGROV1 ovarian is 36.7 µM; with MDA-N, greater than 100 µM; in the assay on NCI-H460 lung, 55.5 µM; in the assay with KM12 colon, greater than 33.8 µM.

On to `Oc1ccc(Cl)cc1C1=N/C(=N\CN2CCN(C/N=C3/N=C(c4cc(Cl)ccc4O)CC(c4ccccc4)N3)CC2)NC(c2ccccc2)C1` (stereo not given), for which the TGI in the assay on NCI-H226 lung was greater than 100 µM; in the assay on A549 NSCLC, greater than 100 µM; in the assay with HCC-2998 colon it was greater than 100 µM; in the assay with SNB-75 CNS, 96.8 µM; in the assay with MCF7 breast it was greater than 100 µM; in the assay with SK-MEL-2 melanoma, greater than 100 µM. Further, the TGI in the assay on IGROV1 ovarian, in the assay with MDA-N, in the assay with NCI-H460 lung and with KM12 colon was greater than 100 µM each time.

With `COC1C(O)CC(OC2C(C)OC(Oc3cc(O)c4c(O)c5c(cc4c3)C[C@@H]([C@H](OC)C(=O)[C@@H](O)[C@@H](C)O)[C@H](OC3CC(OC4CC(OC6CC(C)(O)C(O)C(C)O6)C(O)C(C)O4)C(O)C(C)O3)C5=O)CC2OC(C)=O)OC1C` (stereo not given in full), the TGI in the assay with NCI-H226 lung, in the assay on A549 NSCLC, with HCC-2998 colon, in the assay on SNB-75 CNS, in the assay with MCF7 breast and with SK-MEL-2 melanoma was greater than 100 µM throughout. Also, the TGI with IGROV1 ovarian, with MDA-N, with NCI-H460 lung and in the assay on KM12 colon was greater than 100 µM throughout.

Consider `O=C(NCCN(CCNC(=O)c1cccc(=O)n1O)CCN(CCNC(=O)c1cccc(=O)n1O)CCNC(=O)c1cccc(=O)n1O)c1cccc(=O)n1O`, for which the TGI in the assay on NCI-H226 lung, in the assay on A549 NSCLC, in the assay on HCC-2998 colon, in the assay on SNB-75 CNS, with MCF7 breast and with SK-MEL-2 melanoma was greater than 100 µM each time. Further, the TGI in the assay on IGROV1 ovarian, in the assay on MDA-N, in the assay with NCI-H460 lung and with KM12 colon was greater than 100 µM throughout.

Take `CCC(C)[C@H](NC(=O)N[C@H](C)c1ccccc1)C(=O)OC` (stereo not given in full): the TGI in the assay on NCI-H226 lung, in the assay with A549 NSCLC, with HCC-2998 colon, with SNB-75 CNS, with MCF7 breast and in the assay on SK-MEL-2 melanoma was greater than 100 µM throughout. Also, the TGI in the assay with IGROV1 ovarian, in the assay on MDA-N, in the assay with NCI-H460 lung and in the assay on KM12 colon was greater than 100 µM each time.
